Like-named read-outs stand apart in the source and are kept apart here.
How the values were obtained:
Test in all cases: biochemical
Set-up in all cases: species or system human cell line lysate
[1] = biological target: Isoform GRK6B of G protein-coupled receptor kinase 6 ; GRK6 ; P43250-2 (Homo sapiens, UniProt P43250)
[2] = biological target: Non-receptor tyrosine-protein kinase TNK1 ; TNK1 ; Q13470 (Homo sapiens, UniProt Q13470)
[3] = biological target: Phosphatidylinositol 4,5-bisphosphate 3-kinase catalytic subunit beta ; PIK3CB ; P42338 (Homo sapiens, UniProt P42338)
[4] = biological target: Ribosomal protein S6 kinase alpha-3 ; RPS6KA3 ; P51812 (Homo sapiens, UniProt P51812)
[5] = biological target: cAMP-dependent protein kinase catalytic subunit PRKX ; PRKX ; P51817 (Homo sapiens, UniProt P51817)
[6] = biological target: Dual specificity tyrosine-phosphorylation-regulated kinase 1A ; DYRK1A ; Q13627 (Homo sapiens, UniProt Q13627)
[7] = biological target: Serine/threonine-protein kinase Sgk3 ; SGK3 ; Q96BR1 (Homo sapiens, UniProt Q96BR1)
[8] = biological target: Mitogen-activated protein kinase 11 ; MAPK11 ; Q15759 (Homo sapiens, UniProt Q15759)
[9] = biological target: cAMP-dependent protein kinase catalytic subunit beta ; PRKACB ; P22694 (Homo sapiens, UniProt P22694)
[10] = biological target: Serine/threonine-protein kinase MRCK gamma ; CDC42BPG ; Q6DT37 (Homo sapiens, UniProt Q6DT37)
[11] = biological target: T1, Serine/threonine-protein kinase NLK ; NLK ; Q9UBE8 (Homo sapiens, UniProt Q9UBE8)
T1 sequence (Q9UBE8 1-527): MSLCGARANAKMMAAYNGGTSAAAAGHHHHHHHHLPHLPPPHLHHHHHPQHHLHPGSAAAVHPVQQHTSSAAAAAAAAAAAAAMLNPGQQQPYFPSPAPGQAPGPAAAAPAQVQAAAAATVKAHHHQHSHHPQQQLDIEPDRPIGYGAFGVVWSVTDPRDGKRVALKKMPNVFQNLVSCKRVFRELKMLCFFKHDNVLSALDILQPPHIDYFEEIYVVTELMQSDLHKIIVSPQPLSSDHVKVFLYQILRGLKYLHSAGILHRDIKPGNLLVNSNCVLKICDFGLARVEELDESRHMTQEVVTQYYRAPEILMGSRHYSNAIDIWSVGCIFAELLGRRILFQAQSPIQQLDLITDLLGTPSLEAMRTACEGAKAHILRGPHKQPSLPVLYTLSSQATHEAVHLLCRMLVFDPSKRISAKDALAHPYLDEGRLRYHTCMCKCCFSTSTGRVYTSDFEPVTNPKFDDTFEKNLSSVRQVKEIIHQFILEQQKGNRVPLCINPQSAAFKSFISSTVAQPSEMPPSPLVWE

[12] = biological target: Serine/threonine-protein kinase RIO1 ; RIOK1 ; Q9BRS2 (Homo sapiens, UniProt Q9BRS2)
[13] = biological target: Rho-associated protein kinase 2 ; ROCK2 ; O75116 (Homo sapiens, UniProt O75116)
[14] = biological target: Serine/threonine-protein kinase pim-2 ; PIM2 ; Q9P1W9 (Homo sapiens, UniProt Q9P1W9)
[15] = biological target: Serine/threonine-protein kinase MRCK beta ; CDC42BPB ; Q9Y5S2 (Homo sapiens, UniProt Q9Y5S2)
[16] = biological target: T2, Dual specificity mitogen-activated protein kinase kinase 5 ; MAP2K5 ; Q13163 (Homo sapiens, UniProt Q13163)
T2 sequence (Q13163 1-448): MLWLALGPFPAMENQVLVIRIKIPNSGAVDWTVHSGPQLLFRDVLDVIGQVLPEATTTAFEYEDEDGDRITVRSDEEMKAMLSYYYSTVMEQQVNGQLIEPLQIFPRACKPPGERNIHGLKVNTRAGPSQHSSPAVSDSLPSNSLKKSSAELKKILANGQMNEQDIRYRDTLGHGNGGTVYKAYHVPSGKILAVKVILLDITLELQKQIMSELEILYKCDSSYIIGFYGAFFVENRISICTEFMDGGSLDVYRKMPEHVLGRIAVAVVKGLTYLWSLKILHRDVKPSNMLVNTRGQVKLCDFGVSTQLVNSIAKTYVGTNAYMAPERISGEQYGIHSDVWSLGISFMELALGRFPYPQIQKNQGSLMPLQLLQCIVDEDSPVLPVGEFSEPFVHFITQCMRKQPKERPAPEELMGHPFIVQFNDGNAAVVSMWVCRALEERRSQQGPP

[17] = read-out: BAY-1143572 (10 µM) / %Intensity relative to DMSO
[18] = read-out: BAY-1251152 (10 µM) / %Intensity relative to DMSO

Sequence of Rho-associated protein kinase 2 ; ROCK2 ; O75116 (O75116 whole entry): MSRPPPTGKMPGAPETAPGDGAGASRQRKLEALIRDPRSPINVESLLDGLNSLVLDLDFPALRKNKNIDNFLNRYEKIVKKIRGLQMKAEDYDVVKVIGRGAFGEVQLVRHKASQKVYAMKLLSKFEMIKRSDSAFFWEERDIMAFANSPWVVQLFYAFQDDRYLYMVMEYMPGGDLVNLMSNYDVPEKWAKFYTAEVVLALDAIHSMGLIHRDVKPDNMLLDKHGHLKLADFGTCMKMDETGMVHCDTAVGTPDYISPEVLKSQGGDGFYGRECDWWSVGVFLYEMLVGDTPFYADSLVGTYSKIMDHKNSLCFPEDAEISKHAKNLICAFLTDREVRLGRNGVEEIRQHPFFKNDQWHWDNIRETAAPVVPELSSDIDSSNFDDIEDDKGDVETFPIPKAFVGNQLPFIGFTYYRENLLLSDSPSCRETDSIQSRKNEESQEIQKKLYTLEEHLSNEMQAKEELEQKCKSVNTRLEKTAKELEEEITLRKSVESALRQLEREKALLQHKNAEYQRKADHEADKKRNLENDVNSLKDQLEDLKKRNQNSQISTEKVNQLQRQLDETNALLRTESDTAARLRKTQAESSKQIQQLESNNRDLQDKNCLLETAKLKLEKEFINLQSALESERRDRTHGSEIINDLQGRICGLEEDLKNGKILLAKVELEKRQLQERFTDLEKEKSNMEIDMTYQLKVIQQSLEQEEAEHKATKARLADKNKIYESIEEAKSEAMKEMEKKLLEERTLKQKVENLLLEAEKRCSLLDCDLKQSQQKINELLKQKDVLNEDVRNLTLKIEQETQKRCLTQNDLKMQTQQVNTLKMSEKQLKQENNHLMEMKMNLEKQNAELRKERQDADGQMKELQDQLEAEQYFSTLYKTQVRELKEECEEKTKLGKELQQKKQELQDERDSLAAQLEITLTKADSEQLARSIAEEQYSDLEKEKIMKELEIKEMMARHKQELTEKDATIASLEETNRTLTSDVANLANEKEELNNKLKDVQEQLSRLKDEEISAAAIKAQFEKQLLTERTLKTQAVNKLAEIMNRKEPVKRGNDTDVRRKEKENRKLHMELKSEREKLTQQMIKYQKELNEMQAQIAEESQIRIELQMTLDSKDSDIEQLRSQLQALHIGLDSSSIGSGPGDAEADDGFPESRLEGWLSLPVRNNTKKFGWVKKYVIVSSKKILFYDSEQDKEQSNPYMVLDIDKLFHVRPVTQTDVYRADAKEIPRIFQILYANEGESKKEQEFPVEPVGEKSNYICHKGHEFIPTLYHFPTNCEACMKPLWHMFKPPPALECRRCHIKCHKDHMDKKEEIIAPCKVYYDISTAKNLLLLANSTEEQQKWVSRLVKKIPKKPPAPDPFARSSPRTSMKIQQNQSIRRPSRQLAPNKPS
Sequence of Serine/threonine-protein kinase pim-2 ; PIM2 ; Q9P1W9 (Q9P1W9 whole entry, one chain of several): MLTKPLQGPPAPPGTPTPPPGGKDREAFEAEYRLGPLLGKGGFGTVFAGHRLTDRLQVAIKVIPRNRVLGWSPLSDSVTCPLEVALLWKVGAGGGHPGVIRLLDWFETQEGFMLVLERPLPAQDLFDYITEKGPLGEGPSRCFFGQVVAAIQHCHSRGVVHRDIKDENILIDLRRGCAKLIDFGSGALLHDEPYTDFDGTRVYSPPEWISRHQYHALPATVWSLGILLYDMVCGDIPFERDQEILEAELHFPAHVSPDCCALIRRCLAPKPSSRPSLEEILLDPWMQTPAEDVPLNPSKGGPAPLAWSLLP
Sequence of cAMP-dependent protein kinase catalytic subunit PRKX ; PRKX ; P51817 (P51817 whole entry, one chain of several): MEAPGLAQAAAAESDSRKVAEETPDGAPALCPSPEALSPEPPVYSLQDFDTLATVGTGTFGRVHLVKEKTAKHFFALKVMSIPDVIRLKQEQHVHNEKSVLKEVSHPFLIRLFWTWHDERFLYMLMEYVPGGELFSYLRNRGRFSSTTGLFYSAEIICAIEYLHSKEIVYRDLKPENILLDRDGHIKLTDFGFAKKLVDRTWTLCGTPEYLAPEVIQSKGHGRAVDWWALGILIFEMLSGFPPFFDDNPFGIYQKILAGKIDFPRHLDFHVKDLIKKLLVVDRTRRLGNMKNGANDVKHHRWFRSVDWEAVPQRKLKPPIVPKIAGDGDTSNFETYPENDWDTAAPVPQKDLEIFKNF
Sequence of Serine/threonine-protein kinase RIO1 ; RIOK1 ; Q9BRS2 (Q9BRS2 whole entry, one chain of several): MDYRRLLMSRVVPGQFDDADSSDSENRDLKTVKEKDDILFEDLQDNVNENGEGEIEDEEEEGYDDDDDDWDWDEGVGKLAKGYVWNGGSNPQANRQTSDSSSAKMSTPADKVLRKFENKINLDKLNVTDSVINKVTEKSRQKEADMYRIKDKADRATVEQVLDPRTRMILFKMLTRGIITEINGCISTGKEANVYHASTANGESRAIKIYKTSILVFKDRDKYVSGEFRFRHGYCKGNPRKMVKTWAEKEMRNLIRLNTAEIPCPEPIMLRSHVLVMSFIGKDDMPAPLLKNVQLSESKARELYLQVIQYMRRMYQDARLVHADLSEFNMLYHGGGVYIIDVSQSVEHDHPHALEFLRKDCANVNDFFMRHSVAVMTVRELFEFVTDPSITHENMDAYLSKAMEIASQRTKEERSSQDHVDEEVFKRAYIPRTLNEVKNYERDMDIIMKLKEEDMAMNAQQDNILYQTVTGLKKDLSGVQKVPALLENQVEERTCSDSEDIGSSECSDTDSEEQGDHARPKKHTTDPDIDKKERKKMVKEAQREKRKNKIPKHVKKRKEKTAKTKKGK
Sequence of Serine/threonine-protein kinase MRCK gamma ; CDC42BPG ; Q6DT37 (Q6DT37 whole entry, one chain of several): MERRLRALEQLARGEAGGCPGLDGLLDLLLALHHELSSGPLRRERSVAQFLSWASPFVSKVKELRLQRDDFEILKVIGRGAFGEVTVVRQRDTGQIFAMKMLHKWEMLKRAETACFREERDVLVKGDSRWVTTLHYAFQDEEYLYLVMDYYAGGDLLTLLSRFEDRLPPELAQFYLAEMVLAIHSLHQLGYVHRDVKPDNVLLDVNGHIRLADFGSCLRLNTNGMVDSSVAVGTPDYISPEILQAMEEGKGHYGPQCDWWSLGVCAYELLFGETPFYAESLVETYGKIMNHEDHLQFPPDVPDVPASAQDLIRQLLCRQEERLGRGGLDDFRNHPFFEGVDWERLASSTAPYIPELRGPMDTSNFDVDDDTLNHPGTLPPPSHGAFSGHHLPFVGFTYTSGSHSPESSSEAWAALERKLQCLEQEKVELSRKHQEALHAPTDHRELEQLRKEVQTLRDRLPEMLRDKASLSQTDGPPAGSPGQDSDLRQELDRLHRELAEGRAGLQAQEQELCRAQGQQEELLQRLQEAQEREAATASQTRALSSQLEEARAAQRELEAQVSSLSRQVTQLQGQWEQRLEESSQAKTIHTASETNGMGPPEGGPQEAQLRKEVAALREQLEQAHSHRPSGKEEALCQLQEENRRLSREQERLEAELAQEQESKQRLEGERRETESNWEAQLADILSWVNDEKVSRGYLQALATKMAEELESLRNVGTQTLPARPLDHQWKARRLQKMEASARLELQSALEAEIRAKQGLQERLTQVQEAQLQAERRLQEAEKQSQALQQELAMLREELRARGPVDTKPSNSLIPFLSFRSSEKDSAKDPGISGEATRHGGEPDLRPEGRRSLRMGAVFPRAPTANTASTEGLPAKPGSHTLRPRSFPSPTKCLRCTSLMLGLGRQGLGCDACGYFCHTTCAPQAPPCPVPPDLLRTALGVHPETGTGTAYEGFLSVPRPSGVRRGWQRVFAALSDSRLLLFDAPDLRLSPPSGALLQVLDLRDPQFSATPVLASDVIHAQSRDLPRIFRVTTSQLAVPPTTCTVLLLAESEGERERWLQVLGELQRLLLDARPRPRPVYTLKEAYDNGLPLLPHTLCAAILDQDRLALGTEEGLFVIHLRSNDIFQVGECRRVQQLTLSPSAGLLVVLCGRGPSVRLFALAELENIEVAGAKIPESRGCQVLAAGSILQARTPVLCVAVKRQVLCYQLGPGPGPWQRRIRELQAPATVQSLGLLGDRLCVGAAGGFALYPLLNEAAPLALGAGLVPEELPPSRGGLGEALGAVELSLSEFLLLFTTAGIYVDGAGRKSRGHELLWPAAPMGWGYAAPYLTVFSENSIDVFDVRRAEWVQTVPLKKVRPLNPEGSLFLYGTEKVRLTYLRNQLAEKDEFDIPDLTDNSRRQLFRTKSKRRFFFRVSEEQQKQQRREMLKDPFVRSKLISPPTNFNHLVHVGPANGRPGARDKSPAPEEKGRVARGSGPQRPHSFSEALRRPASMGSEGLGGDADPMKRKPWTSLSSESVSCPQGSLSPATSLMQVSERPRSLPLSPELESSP
Sequence of Serine/threonine-protein kinase Sgk3 ; SGK3 ; Q96BR1 (Q96BR1 whole entry, one chain of several): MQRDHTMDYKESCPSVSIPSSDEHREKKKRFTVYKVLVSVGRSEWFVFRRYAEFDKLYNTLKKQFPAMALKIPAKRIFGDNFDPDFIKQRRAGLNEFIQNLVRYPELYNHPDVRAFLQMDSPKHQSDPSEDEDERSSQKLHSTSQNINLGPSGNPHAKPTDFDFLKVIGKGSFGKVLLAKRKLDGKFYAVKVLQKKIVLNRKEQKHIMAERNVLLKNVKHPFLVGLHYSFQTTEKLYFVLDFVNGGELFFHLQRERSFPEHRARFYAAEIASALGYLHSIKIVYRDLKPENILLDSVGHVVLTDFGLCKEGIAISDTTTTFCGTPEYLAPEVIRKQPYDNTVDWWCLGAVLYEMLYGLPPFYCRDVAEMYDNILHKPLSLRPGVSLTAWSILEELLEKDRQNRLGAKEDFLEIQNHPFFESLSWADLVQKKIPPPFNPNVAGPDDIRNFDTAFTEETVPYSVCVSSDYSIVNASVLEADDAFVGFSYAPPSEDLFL
Sequence of Mitogen-activated protein kinase 11 ; MAPK11 ; Q15759 (Q15759 whole entry): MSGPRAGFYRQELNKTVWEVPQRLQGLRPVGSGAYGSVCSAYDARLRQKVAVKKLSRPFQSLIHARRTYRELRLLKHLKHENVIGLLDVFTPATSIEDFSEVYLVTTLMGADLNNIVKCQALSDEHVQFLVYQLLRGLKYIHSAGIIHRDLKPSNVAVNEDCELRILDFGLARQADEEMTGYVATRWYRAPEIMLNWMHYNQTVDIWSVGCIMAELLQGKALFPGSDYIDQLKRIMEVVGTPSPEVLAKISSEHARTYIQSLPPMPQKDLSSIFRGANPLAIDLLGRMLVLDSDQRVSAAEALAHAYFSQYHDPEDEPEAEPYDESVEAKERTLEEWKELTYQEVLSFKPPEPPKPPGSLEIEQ

## COc1cc(F)ccc1-c1ncnc(Nc2cccc(C[S@](C)(=N)=O)c2)n1 [BAY-1143572]
[1]; [17]
  remaining activity at 10 µM: 137%
[2]; [17]
  remaining activity at 10 µM: 113%
[3]; [17]
  remaining activity at 10 µM: 83.7%
[4]; [17]
  remaining activity at 10 µM: 115%
[5]; [17]
  remaining activity at 10 µM: 152%
[6]; [17]
  remaining activity at 10 µM: 76.3%
[7]; [17]
  remaining activity at 10 µM: 148%
[8]; [17]
  remaining activity at 10 µM: 116%
[9]; [17]
  remaining activity at 10 µM: 111%
[10]; [17]
  remaining activity at 10 µM: 102%
[11]; [17]
  remaining activity at 10 µM: 103%
[12]; [17]
  remaining activity at 10 µM: 106%
[13]; [17]
  remaining activity at 10 µM: 120%
[14]; [17]
  remaining activity at 10 µM: 132%
[15]; [17]
  remaining activity at 10 µM: 102%
[16]; [17]
  remaining activity at 10 µM: 102%

## COc1cc(F)ccc1-c1cc(Nc2cc(CS(C)(=N)=O)ccn2)ncc1F (centres unmarked) [BAY-1251152]
[1]; [18]
  remaining activity at 10 µM: 111%
[2]; [18]
  remaining activity at 10 µM: 109%
[3]; [18]
  remaining activity at 10 µM: 57.7%
[4]; [18]
  remaining activity at 10 µM: 107%
[5]; [18]
  remaining activity at 10 µM: 140%
[6]; [18]
  remaining activity at 10 µM: 60.2%
[7]; [18]
  remaining activity at 10 µM: 139%
[8]; [18]
  remaining activity at 10 µM: 107%
[9]; [18]
  remaining activity at 10 µM: 105%
[10]; [18]
  remaining activity at 10 µM: 103%
[11]; [18]
  remaining activity at 10 µM: 115%
[12]; [18]
  remaining activity at 10 µM: 96.7%
[13]; [18]
  remaining activity at 10 µM: 110%
[14]; [18]
  remaining activity at 10 µM: 102%
[15]; [18]
  remaining activity at 10 µM: 101%
[16]; [18]
  remaining activity at 10 µM: 101%
